B1: Bax TATA box core promoter probe (dsDNA)
DNA 1: ACTCAGTTTTTAGTCATCTATAACGTCCTGCCTGGAAGCATGCTATTTTGGGCCTCTGAGCTT
DNA 2: AAGCTCAGAGGCCCAAAATAGCATGCTTCCAGGCAGGACGTTATAGATGACTAAAAACTGAGT

Legend:
CRD1 domain of p300 = assay: CRD1 dependent stimulation of transcription (Gal4 p300 CRD1+ luciferase reporter); assay type: cell-based, human; settings: treatment of cells with the compound; data not shown
Description: Calcium phosphate transfections of U-2 OS cells were performed substantially as disclosed in Webster & Perkins (1999, Mol. Cell. Biol. 19: 3485-3495). Briefly, transfections were performed in 6 cm dishes using 2 μg of reporter plasmid, 1.6 μg of RSV p21 or RSV ADH control plasmid and 5 ng of Gal4 expression plasmid (except where indicated in the figure legend). Cells were harvested approximately 40 hours after transfection. Lysates were prepared using passive lysis buffer (Promega) and luciferase assays were performed according to manufacturer's instructions (Promega). All experiments were performed separately, a minimum of three times before calculating means and standard errors as shown in the Figures. Relative luciferase levels were calculated by referring to the level of activity seen with the Gal4 DNA-binding domain (amino acids 1-147) not fused to a heterologous activator, except when specifically referred to.
Wild type p21 and the two mutants were cotransfected with Gal4 p300^CRD+ (192-1044) and Gal4 E1B luciferase into U-2 OS cells. Both mutants stimulated transcriptional activity to the same extent as the wild type protein (FIG. 8B), consistent with a Cyclin/CDK independent role for p21 regulation of CRD1. […]

TBP + TFIIB complex = TBP + TFIIB complex (UniProt P20226;Q00403 P20226:1-339,Q00403:1-316); assay: EMSA; no complex seen; 30 C, 4 mM MgCl2, 55 mM KCl; exact probe span not stated; settings: tags: gift from Stefan Roberts, University of Manchester; label: 32P
Source text: The sequence of the TATA box and surrounding sequences was known in the art to influence binding of basal transcription factors (Lieberman et al., 1997, Mol. Cell. Biol. 17: 6624-6632). Since the Bax TATA sequence differs considerably from AdML, these constructs were used to determine whether the observed structural differences would be associated with differential binding of the core transcription factors TBP (TATA binding protein) and TFIIB. In these experiments, purified recombinant TBP and TFIIB were therefore incubated with ³²P labeled probes containing the AdML and Bax TATA boxes and analyzed by electrophoretic mobility shift assay (EMSA), performed as follows. ³²P labeled probe DNA was incubated for 1 hr at 30° C. with ˜1 ng purified recombinant TBP, ˜2 ng purified recombinant TFIIB (both proteins gifts from Dr Stefan Roberts, University of Manchester), 5 μg BSA, 250 ng poly(dG.dC) competitor and 12 μL buffer (having a formula of 10 mM Hepes pH7.9, 0.2 mM EDTA, 55 mM KCl, 4 mM MgCl₂, 5 mM ammonium sulphate, 8% v/v glycerol, 2% v/v polyethylene glycol, 5 mM β-mercaptoethanol, and 0.2 mM PMSF). Samples were then resolved using a 4.8% acrylamide gel (in 0.5×TB buffer). The gel was then dried and exposed to film.

Sequence of TBP + TFIIB complex (P20226 whole entry, chain 1 of 2): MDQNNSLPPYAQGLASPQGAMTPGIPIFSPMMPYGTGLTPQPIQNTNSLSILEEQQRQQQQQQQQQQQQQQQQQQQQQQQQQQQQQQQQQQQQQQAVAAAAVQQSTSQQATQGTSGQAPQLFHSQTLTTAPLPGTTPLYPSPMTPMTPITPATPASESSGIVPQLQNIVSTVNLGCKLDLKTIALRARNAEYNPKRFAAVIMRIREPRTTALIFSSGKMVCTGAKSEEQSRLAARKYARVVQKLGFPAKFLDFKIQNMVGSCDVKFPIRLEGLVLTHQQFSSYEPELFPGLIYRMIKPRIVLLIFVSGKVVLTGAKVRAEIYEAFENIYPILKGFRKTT
Sequence of TBP + TFIIB complex (Q00403 whole entry, chain 2 of 2): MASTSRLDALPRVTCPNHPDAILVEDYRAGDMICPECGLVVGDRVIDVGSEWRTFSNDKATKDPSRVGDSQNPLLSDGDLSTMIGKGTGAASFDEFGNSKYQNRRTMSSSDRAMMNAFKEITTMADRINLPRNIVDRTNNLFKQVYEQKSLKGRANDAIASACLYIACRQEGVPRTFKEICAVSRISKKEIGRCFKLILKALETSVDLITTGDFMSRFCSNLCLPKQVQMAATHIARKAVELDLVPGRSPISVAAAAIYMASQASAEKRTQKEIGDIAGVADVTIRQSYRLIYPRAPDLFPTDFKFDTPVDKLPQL

| Molecule | CRD1 dependent stimulation of transcription (CRD1 domain of p300) | binding result (TBP + TFIIB complex) |
| --- | --- | --- |
| NC(Cn1ccc(=O)c(O)c1)C(=O)O (stereo not drawn) [mimosine] | does not result in CRD1 dependent stimulation of transcription |  |
| CC[C@H](CO)Nc1nc(NCc2ccccc2)c2ncn(C(C)C)c2n1 [roscovitine] | does not result in CRD1 dependent stimulation of transcription |  |
| B1 |  | no binding |

— patent publication US20030186424A1, “Reagents and methods for identifying and modulating expression of genes regulated by CDK inhibitors” (priority 2001, published 2003)
